Measured values: paper PMC9229843, “Cancer-Related Somatic Mutations in Transmembrane Helices Alter Adenosine A1 Receptor Pharmacology” (Molecules, 2022)
Numbering of substitutions follows the chain as printed.

How the values were obtained:
hA1AR L134F^4.52 = biological target: T1, hA1AR L134F^4.52 (Homo sapiens, UniProt P30542, L134F); details: [35S]GTPγS; CPA at EC80; ratio over basal activity of wild type or mutant hA1AR
T1 sequence (P30542 1-326 L134F): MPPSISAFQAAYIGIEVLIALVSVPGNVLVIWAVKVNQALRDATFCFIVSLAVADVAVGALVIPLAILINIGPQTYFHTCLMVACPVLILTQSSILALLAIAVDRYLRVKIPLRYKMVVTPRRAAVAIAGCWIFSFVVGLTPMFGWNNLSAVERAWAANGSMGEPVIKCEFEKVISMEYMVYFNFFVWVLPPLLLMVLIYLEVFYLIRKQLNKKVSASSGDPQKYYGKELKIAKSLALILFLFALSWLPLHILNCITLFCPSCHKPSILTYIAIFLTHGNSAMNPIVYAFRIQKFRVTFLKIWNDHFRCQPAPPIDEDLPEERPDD
Description: (§1) Transient transfection of CHO cells with wild type or mutated hA1AR plasmid constructs was performed using a polyethylenimine (PEI) method. Cells were seeded in 10-cm culture dishes to achieve 50–60% confluency 24 h prior to transfection. On the day of transfection, cells were transfected with a PEI: DNA ratio of 3:1 and a plasmid DNA amount of 10 μg/dish. Moreover, 24 h post-transfection, the medium was refreshed, and 48 h after transfection, cells were collected and membranes were prepared as previously described. Membranes were aliquoted in 250 or 100 μL and stored at −80 °C. Membrane protein concentrations were determined using the BCA method.
(§2) [^35S]GTPγS binding assays were adapted from a previously published method. […] Then, 20 µL of [^35S]GTPγS (final concentration of 0.3 nM) was added to each well, followed by 90 min of incubation at 25 °C. Incubations were terminated and filter-bound radioactivity was measured as described above.
(§3) All experimental data were analyzed by GraphPad Prism 7.0 or 8.0 (GraphPad Software Inc., San Diego, CA, USA). Data from yeast liquid growth and [^35S]GTPγS binding assays were analyzed by non-linear regression using “log (agonist) vs. response (three parameters)” or “log (inhibitor) vs. response (three parameters)” to obtain potency (EC50), inhibitory potency (IC50), and efficacy (Emax or Imax) values. The radioligand displacement curves were obtained from a statistically preferred one-site or two-site binding model. pKi values were calculated from pIC50 values using the Cheng–Prusoff equation, where KD values were obtained from the homologous competition assays from this study and calculated by non-linear regression using “one site–homologous” [62].

hA1AR S246T^6.47 = biological target: T2, hA1AR S246T^6.47 (Homo sapiens, UniProt P30542, S246T); details: [35S]GTPγS; CPA at EC80; ratio over basal activity of wild type or mutant hA1AR
T2 sequence (P30542 1-326 S246T): T1 sequence (P30542 1-326 L134F) with F134L, S246T
Description: as §1, §2, §3

hA1AR W188C^5.46 = biological target: T3, hA1AR W188C^5.46 (Homo sapiens, UniProt P30542, W188C); details: [35S]GTPγS; CPA at EC80; ratio over basal activity of wild type or mutant hA1AR
T3 sequence (P30542 1-326 W188C): T1 sequence (P30542 1-326 L134F) with F134L, W188C
Description: as §1, §2, §3

hA1AR G279S^7.44 = biological target: T4, hA1AR G279S^7.44 (Homo sapiens, UniProt P30542, G279S); details: [35S]GTPγS; CPA at EC80; ratio over basal activity of wild type or mutant hA1AR
T4 sequence (P30542 1-326 G279S): T1 sequence (P30542 1-326 L134F) with F134L, G279S
Description: as §1, §2, §3

wild type hA1AR = biological target: T5, wild type hA1AR (Homo sapiens, UniProt P30542); details: [35S]GTPγS; CPA at EC80; ratio over basal activity of wild type or mutant hA1AR
T5 sequence (P30542 1-326): T1 sequence (P30542 1-326 L134F) with F134L
Description: as §1, §2, §3

hA1AR H78L^3.23 [1] = biological target: T6, hA1AR H78L^3.23 (Homo sapiens, UniProt P30542, H78L); details: [35S]GTPγS; CPA at EC80; ratio over basal activity of wild type or mutant hA1AR
T6 sequence (P30542 1-326 H78L): T1 sequence (P30542 1-326 L134F) with H78L, F134L
Description: as §1, §2, §3

hA1AR H78L^3.23 [2] = biological target: T6, hA1AR H78L^3.23; test: yeast liquid growth assay; assay type: cell-based; details: result in words
Description: The plasmids, pDT-PGK_hA1AR, containing either wild type or mutated hA1AR were transformed into a MMY24 S. cerevisiae strain following the lithium acetate procedure.
In order to characterize the mutant hA1ARs, liquid growth assays in 96-well plates were performed to obtain concentration–growth curves as previously described. […] The overnight cultures were then diluted to 40,000 cells/mL (OD600 ≈ 0.02) in a selective medium without uracil, leucine, and histidine (YNB-ULH). For the determination of constitutive activity, 50 μL of yeast cells and 150 μL of YNB-ULH medium containing different concentrations of 3-AT and 0.8 IU/mL ADA were then added to each well. To obtain concentration–growth curves, 2 μL of various concentrations of ligands, 50 μL of yeast cells, and 150 μL of YNB-ULH medium containing 7 mM 3-AT and 0.8 IU/mL ADA were then added to each well. After incubation at 30 °C for 35 h in a Genios plate reader (TECAN, Zürich, Switzerland) with shaking for 1 min at 300 rpm every 10 min, the optical density was measured at a wavelength of 595 nm, which represented the level of yeast cell growth.
as §3

Imax (hA1AR L134F^4.52): 0.68 ± 0.01
Imax (hA1AR S246T^6.47): 0.70 ± 0.05
Imax (hA1AR W188C^5.46): 0.74 ± 0.03
Imax (hA1AR G279S^7.44): 0.65 ± 0.08
Imax (wild type hA1AR): 0.67 ± 0.05
Imax (hA1AR H78L^3.23 [1]): 0.83 ± 0.03
reduction of constitutive activity by inverse agonist (hA1AR H78L^3.23 [2]): not reduced
Structure (SMILES): CCCn1c(=O)c2[nH]c(C3CCCC3)nc2n(CCC)c1=O [DPCPX, 8-cyclopentyl-1,3-dipropylxanthine]
